Here are results for 13 compounds from patent US8354398B2, “Substituted isoxazole compounds” (Bristol-Myers Squibb Company, priority 2009, dated 2013).

Counter-ions that a name gives are not always drawn.

For assay [1], the target named is T1, S1P1 (Homo sapiens, UniProt P21453). Briefly: S1P1 Binding Assay (33P-S1P ligand competition, membranes from CHO cells). On the set-up: expressed in transfected cells; host or cells: CHO cells. As to conditions: membranes of CHO cells expressing human S1P1; 0.03 nM 33P-S1P; 60 min room temperature. As to the method: Membranes were prepared from CHO cells expressing human S1P1. Cells were dissociated in buffer containing 20 mM HEPES, pH 7.5, 50 mM NaCl, 2 mM EDTA and Protease Inhibitor cocktail (Roche), and disrupted on ice using the Polytron homogenizer. The homogenate was centrifuged at 20,000 rpm (48,000 g) and the supernatant was discarded. The membrane pellets were resuspended in buffer containing 50 mM HEPES, pH 7.5, 100 mM NaCl, 1 mM MgCl2, 2 mM EDTA and stored in aliquots at −80° C. after protein concentration determination.
Membranes (2 μg/well) and 0.03 nM final concentration of ^33P-S1P ligand (1 mCi/ml, American Radiolabeled Chemicals) were added to the compound plates. Binding was performed for 60 min at room temperature, terminated by collecting the membranes onto GF/B filter plates, and radioactivity was measured by TOPCOUNT®. The competition data of the test compounds over a range of concentrations was plotted as percentage inhibition of radioligand specific binding. The IC50 is defined as the concentration of competing ligand needed to reduce specific binding by 50%.
Compounds of the present invention and Comparative Compound A were tested in the S1P1 binding assay described hereinabove and the results rounded to two digits, shown in Table A were obtained. In some instances, the value is an average of multiple experiments where N is the number of experiments conducted that provided satisfactory dose response curves. When more than one batch of an example was tested, the value presented is from the batch which allowed a comparison of GTPγS S1P1 and GTPγS S1P3 in Method A (Data shown in Table B). Data was not averaged across different batches of an example compound.

The target of assay [2] is T1, S1P1. Put plainly: Method A: Receptor [35S] GTPγS Binding Assay, membranes from S1P1/CHO cells. Also on record: expressed in transfected cells; host or cells: S1P1/CHO cells. As to conditions: for EC50: Method A, S1P1/CHO cell membranes; for GTPγS S1P3/S1P1 (Method A): ratio of GTPγS S1P3 EC50 to GTPγS S1P1 EC50, Method A. It counts as biochemical. As to the method:
(§1) Compounds were loaded in a 384 Falcon v-bottom plate (0.5 μl/well in a 3-fold dilution). Membranes prepared from S1P1/CHO cells or EDG3-Ga15-bla HEK293T cells were added to the compound plate (40 μl/well, final protein […]) with MULTIDROP®. [^35S]GTP (1250 Ci/mmol, Perkin Elmer) was diluted in assay buffer: 20 mM HEPES, pH7.5, 10 mM MgCl2, 150 mM NaCl, 1 mM EGTA, 1 mM DTT, 10 μM GDP, 0.1% fatty acid free BSA, and 10 mg/ml Saponin to 0.4 nM. 40 μl of the [^35S] GTP solution was added to the compound plate with a final concentration of 0.2 nM. The reaction was kept at room temperature for 45 min. At the end of incubation, all the mixtures in the compound plate were transferred to a 384 well FB filter plates via GPCR robot system. The filter plate was washed with water 4 times by using the modified manifold Embla plate washer and dried at 60° C. for 45 min. 30 μl of MicroScint 20 scintillation fluid was added to each well for counting at Packard TOPCOUNT®. EC50 is defined as the agonist concentration that corresponds to 50% of the Ymax (maximal response) obtained for each individual compound tested.
(§2) Compounds of the present invention and Comparative Compound A were tested in the Receptor [^35S] GTPγS Binding Assays (Method A) and Receptor [35S] In some instances, the value is an average of multiple experiments where N is the number of experiments conducted that provided satisfactory dose response curves. When more than one batch of an example was tested, the value presented is from a batch which allowed a comparison of GTPγS S1P1 and GTPγS S1P3 in which the most number of experiments were performed. Preferably, the same batch was examined in Method A and Method B. Data was not averaged across different batches of an example compound.

Another assay addresses S1P3 (Homo sapiens, UniProt Q99500). Put plainly: Method A: Receptor [35S] GTPγS Binding Assay, membranes from EDG3-Ga15-bla HEK293T cells. It counts as biochemical. On the set-up: expressed in transfected cells; host or cells: EDG3-Ga15-bla HEK293T cells. The conditions noted are these: EDG3-Ga15-bla HEK293T cell membranes. As to the method: as §1, §2
A general note: GTPγS is a poorly hydrolysed GTP analogue; its binding reports G protein activation.

For assay [3], the target named is T1, S1P1. Put plainly: Method B: Receptor [35S] GTPγS SPA Binding Assay, membranes from S1P1 transfected CHO cells. It is filed as biochemical. Also on record: expressed in transfected cells; host or cells: S1P1/CHO cells. The conditions noted are these: Method B SPA; S1P1 transfected CHO cell membranes; NC = a satisfactory dose response curve was not obtained. As to the method: Membranes prepared from S1P1 or S1P3 transfected CHO cells (2 μg protein) were incubated in 96-well white plates (CORNING® 3693) with test compounds diluted in DMSO, in 50 μl of reaction mixture containing 7.5 μl WGA-PVT beads (20 mg/ml), and 5 μM GDP, 20 mM HEPES pH 7.4, 100 mM NaCl, 1 mM EDTA, 5 mM MgCl2, 10 μg/ml saponin, 0.1% BSA, and 1 μM leupeptin. The assay was initiated with the addition of 25 μl of 0.2 nM [^35S]-GTPγS (1250 Ci/mmol; NEN) in assay buffer. After 90 min incubation at room temperature, spin the plate at 1000 rpm for 5 min. The bound radionuclides were measured at TOPCOUNT®, expressed as % response relative to S1P (1 μM) activation. Data was analyzed using the four parameter logistic equation in Excel. The four parameters in the equation, Y=A+((B−A)/(1+((EC50/X)^D))), are described as following: A is the Y value (agonist activity) at the bottom plateau; B is the Y value at the top plateau; EC50 is the X value (agonist concentration) when the response is halfway between bottom and top; D is Hill coefficient. Curves were not generated for compounds having Ymax values were below 50%.
as §2

Sequence of S1P3 (Q99500 whole entry): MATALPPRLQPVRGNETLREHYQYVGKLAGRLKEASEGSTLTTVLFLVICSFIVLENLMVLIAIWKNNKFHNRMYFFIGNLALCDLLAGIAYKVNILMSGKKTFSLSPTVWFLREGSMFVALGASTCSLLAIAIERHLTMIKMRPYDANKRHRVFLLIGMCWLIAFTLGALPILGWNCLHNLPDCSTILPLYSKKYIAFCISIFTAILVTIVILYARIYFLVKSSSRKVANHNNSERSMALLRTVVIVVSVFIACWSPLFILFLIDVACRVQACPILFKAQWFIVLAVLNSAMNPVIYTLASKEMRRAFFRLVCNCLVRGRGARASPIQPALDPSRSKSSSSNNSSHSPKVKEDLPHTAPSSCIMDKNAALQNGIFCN
T1 sequence (P21453 whole entry): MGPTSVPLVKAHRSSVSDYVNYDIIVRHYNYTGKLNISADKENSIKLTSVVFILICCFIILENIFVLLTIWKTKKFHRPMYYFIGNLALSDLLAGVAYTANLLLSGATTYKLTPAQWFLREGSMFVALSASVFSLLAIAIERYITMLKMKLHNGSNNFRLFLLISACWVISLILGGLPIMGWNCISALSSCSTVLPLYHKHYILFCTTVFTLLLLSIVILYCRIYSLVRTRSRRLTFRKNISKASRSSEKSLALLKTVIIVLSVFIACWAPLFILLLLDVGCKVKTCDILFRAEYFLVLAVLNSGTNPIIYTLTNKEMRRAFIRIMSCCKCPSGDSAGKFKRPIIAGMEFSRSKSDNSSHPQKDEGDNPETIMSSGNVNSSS

As usually defined, the IC50 is the concentration at which inhibition is half-maximal. A low value points to greater potency. As usually defined, the EC50 is the concentration needed to bring the measured effect to its halfway point. A higher EC50 goes with a less potent agent. Compound `O=C(O)C1CN(Cc2ccc(-c3noc(-c4onc(-c5ccccc5)c4C(F)(F)F)n3)c(C(F)(F)F)c2)C1` [Example 24, 1-(4-(5-(3-phenyl-4-(trifluoromethyl)isoxazol-5-yl)-1,2,4-oxadiazol-3-yl)-3-(trifluoromethyl)benzyl)azetidine-3-carboxylic acid] yielded an IC50 at S1P1 [1] of 1.56 nM. Moreover, on S1P1 [2], the half-maximal effective concentration (EC50) was 6.4 nM and the “GTPγS S1P3/S1P1 (Method A)” value is recorded as 4,900. The same compound returned a 50% effective concentration (EC50) at S1P3 of 31000 nM.
On S1P1 [1], `CCCCc1c(-c2nc(-c3ccc(CN4CC(C(=O)O)C4)cc3)no2)noc1-c1ccccc1` [Example 3, 1-(4-(5-(4-Butyl-5-phenylisoxazol-3-yl)-1,2,4-oxadiazol-3-yl)benzyl)-azetidine-3-carboxylic acid] had a 50% inhibitory concentration (IC50) of 0.065 nM. Further, the EC50 amounted to 0.26 nM at S1P1 [2], 0.16 nM at S1P1 [3] and 330 nM on S1P3. For the same compound, the “GTPγS S1P3/S1P1 (Method A)” value at S1P1 [2] was 1,300.
For `CNC(=O)c1c(-c2ccccc2)noc1-c1nc(-c2ccc(CN3CC(C(=O)O)C3)cc2)no1` [Example 14, 1-(4-(5-(4-(Methylcarbamoyl)-3-phenylisoxazol-5-yl)-1,2,4-oxadiazol-3-yl)benzyl)azetidine-3-carboxylic acid, 2,2,2-trifluoroacetic acid salt] the same measures were 0.7 nM, 150 nM, 1.2 nM, 5200 nM and 35.
The compound `O=C(O)c1c(-c2ccccc2)noc1-c1nc(-c2ccc(CN3CC(C(=O)O)C3)cc2)no1` [Example 16, 5-(3-(4-((3-Carboxyazetidin-1-yl)methyl)phenyl)-1,2,4-oxadiazol-5-yl)-3-phenylisoxazole-4-carboxylic acid] came in with an IC50 on S1P1 [1] of 40 nM. Also, at S1P1 [2], a half-maximal effect (EC50) was put at 112 nM and the “GTPγS S1P3/S1P1 (Method A)” value came out at 18. In addition, the EC50 on S1P3 was determined as 2050 nM.
For `COC(=O)c1c(-c2ccccc2)noc1-c1nc(-c2ccc(CN3CC(C(=O)O)C3)cc2)no1` [Example 13, 1-(4-(5-(4-(Methoxycarbonyl)-3-phenylisoxazol-5-yl)-1,2,4-oxadiazol-3-yl)benzyl)azetidine-3-carboxylic acid, 2,2,2-trifluoroacetic acid salt], in that order: 0.094 nM, 1.9 nM, 578 and 1100 nM.
For `O=C(O)C1CN(Cc2ccc(-c3noc(-c4noc(-c5ccccc5)c4CCC(F)(F)F)n3)cc2)C1` [Example 8, 1-(4-(5-(5-Phenyl-4-(3,3,3-trifluoropropyl)isoxazol-3-yl)-1,2,4-oxadiazol-3-yl)benzyl)azetidine-3-carboxylic acid, 2,2,2-trifluoroacetic acid salt], in that order: 0.09 nM, 3.7 nM, 140 and 520 nM.
For `CCc1c(-c2nc(-c3ccc(CN4CC(C(=O)O)C4)c(Br)c3)no2)noc1-c1ccccc1` [Example 5, 1-(2-Bromo-4-(5-(4-ethyl-5-phenylisoxazol-3-yl)-1,2,4-oxadiazol-3-yl)benzyl)azetidine-3-carboxylic acid] the same measures were 0.14 nM, 5.3 nM, 320 and 1700 nM.
`Cc1cc(-c2noc(-c3onc(-c4ccccc4)c3C(F)(F)F)n2)ccc1CN1CC(C(=O)O)C1` [Example 22, 1-(2-methyl-4-(5-(3-phenyl-4-(trifluoromethyl)isoxazol-5-yl)-1,2,4-oxadiazol-3-yl)benzyl)azetidine-3-carboxylic acid] gave an IC50 at S1P1 [1] of 0.55 nM. On S1P1 [2], the EC50 was 0.52 nM and the “GTPγS S1P3/S1P1 (Method A)” value is reported as 3,000. At S1P3, this compound had a half-maximal effective concentration (EC50) of 1600 nM.
For `O=C(O)C1CN(Cc2ccc(-c3noc(-c4onc(-c5ccccc5)c4C(F)(F)F)n3)cc2F)C1` [Example 21, 1-(2-Fluoro-4-(5-(3-phenyl-4-(trifluoromethyl)isoxazol-5-yl)-1,2,4-oxadiazol-3-yl)benzyl)azetidine-3-carboxylic acid], in that order: 0.32 nM, 0.32 nM, 3,500 and 1100 nM.
For `O=C(NCC(F)(F)F)c1c(-c2ccccc2)noc1-c1nc(-c2ccc(CN3CC(C(=O)O)C3)cc2)no1` [Example 15, 1-(4-(5-(3-Phenyl-4-(2,2,2-trifluoroethylcarbamoyl)isoxazol-5-yl)-1,2,4-oxadiazol-3-yl)benzyl)azetidine-3-carboxylic acid, 2,2,2-trifluoroacetic acid salt] the same measures were 6.5 nM, 29 nM, 175 and 5100 nM.
`O=C(O)C1CN(Cc2ccc(-c3noc(-c4onc(-c5ccccc5)c4C(F)(F)F)n3)c(Cl)c2)C1` [Example 23, 1-(3-chloro-4-(5-(3-phenyl-4-(trifluoromethyl)isoxazol-5-yl)-1,2,4-oxadiazol-3-yl)benzyl)azetidine-3-carboxylic acid]: at S1P1 [1], the IC50 was determined as 0.26 nM. Besides, on S1P1 [2], it took 1.9 nM to reach a half-maximal effect (EC50) and the “GTPγS S1P3/S1P1 (Method A)” value is on record as 4,400. On S1P3, this compound registered an EC50 of 8300 nM.
For `O=C(O)C1CN(Cc2ccc(-c3noc(-c4noc(-c5ccccc5)c4-c4ccccc4)n3)c(C(F)(F)F)c2)C1` [Example 25, 1-(4-(5-(4,5-Diphenylisoxazol-3-yl)-1,2,4-oxadiazol-3-yl)-3-(trifluoromethyl)benzyl)azetidine-3-carboxylic acid, 2,2,2-trifluoroacetic acid salt], in that order: 0.44 nM, 9.2 nM, 371 and 3400 nM.
For `CC(C)Cc1onc(-c2nc(-c3ccc(CN4CC(C(=O)O)C4)cc3)no2)c1C(F)(F)F` [Example 20, 1-(4-(5-(5-Isobutyl-4-(trifluoromethyl)isoxazol-3-yl)-1,2,4-oxadiazol-3-yl)benzyl)-azetidine-3-carboxylic acid], in that order: 0.15 nM, 0.56 nM, 3,900 and 2200 nM.
